Assay: Oil recovery from oil saturated formation core by brine displacement followed by DMS displacement
Conditions: after waterflooding with brine
Method: Incremental recovery of oil from a formation core using an oil recovery formulation consisting of dimethyl sulfide following oil recovery from the core by water-flooding was measured to evaluate the effectiveness of DMS as a tertiary oil recovery agent.
Two 5.02 cm long Berea sandstone cores with a core diameter of 3.78 cm and a permeability between 925 and 1325 mD were saturated with a brine having a composition as set forth in Table 7.
After saturation of the cores with brine, the brine was displaced by a Middle Eastern Asphaltic crude oil having the characteristics as set forth above in Table 3 to saturate the cores with oil.
Oil was recovered from each oil saturated core by the addition of brine to the core under pressure and by subsequent addition of DMS to the core under pressure. Each core was treated as follows to determine the amount of oil recovered from the core by addition of brine followed by addition of DMS. Oil was initially displaced from the core by addition of brine to the core under pressure. A confining pressure of 1 MPa was applied to the core during addition of the brine, and the flow rate of brine to the core was set at 0.05 ml/min. The core was maintained at a temperature of 50° C. during displacement of oil from the core with brine. […]

- oil recovered, of the oil remaining in the core after the waterflood: approximately 60%
Compound: CSC [Dimethyl Sulfide, dimethyl sulfide]

From patent US9399904B2, “Oil recovery system and method” (SHELL OIL COMPANY, priority 2013, dated 2016)
